Test results: patent US9856263B2, “Heteroaromatic compounds and their use as dopamine D1 ligands” (PFIZER INC., priority 2014, dated 2018)
Like-named read-outs stand apart in the source and are kept apart here.

Biological target: Human D1 Receptor (Homo sapiens (Human), UniProt P21728)
Experiment: Human D1 receptor binding assay ([3H]-SCH23390 competition binding)
Conditions: over-expressing LTK human cell lines, 0.5 nM [3H]-SCH23390, 30 min at 37° C., footnote a = single determination, b = geometric mean of ≧5 determinations
Method: D1 binding assays were performed using over-expressing LTK human cell lines. […] These ligand and tissue concentrations were used in time course studies to determine linearity and equilibrium conditions for binding. […] The pellet was resuspended in assay buffer [50 mM Tris (pH 7.4@ RT) containing 4 mM MgSO4 and 0.5 mM EDTA]. […] Non-specific binding was determined by radioligand binding in the presence of a saturating concentration of (+)-Butaclamol (10 μM), a D1 antagonist After a 30 minute incubation period at 37° C., assay samples were rapidly filtered through Unifilter-96 GF/B PEI-coated filter plates and rinsed with 50 mM Tris buffer (pH 7.4 at 4° C.). […] Ki values were calculated according to the Cheng-Prusoff equation: […]

[1] = read-out: Human D1 Receptor Binding, Ki (nM), Geometric mean of 2-4 determinations (unless otherwise indicated)

Human D1 Receptor, sequence (P21728 whole entry): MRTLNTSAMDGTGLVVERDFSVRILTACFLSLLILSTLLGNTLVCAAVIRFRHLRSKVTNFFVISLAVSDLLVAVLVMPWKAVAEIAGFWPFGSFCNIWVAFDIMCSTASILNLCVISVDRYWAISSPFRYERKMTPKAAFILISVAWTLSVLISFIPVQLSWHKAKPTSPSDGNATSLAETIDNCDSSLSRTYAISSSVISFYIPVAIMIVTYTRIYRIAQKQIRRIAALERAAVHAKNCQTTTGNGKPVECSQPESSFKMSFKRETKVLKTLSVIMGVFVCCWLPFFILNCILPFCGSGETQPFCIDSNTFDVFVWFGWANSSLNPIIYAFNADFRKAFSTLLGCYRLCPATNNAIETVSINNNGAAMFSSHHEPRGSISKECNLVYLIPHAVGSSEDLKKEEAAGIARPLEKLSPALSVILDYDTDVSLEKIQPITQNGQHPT

For `Cc1c(-c2ccc(Oc3nccn4cccc34)cc2)n(C)c(=O)[nH]c1=O` [Example 15, 1,5-dimethyl-6-[4-(pyrrolo[1,2-a]pyrazin-1-yloxy)phenyl]pyrimidine-2,4(1H,3H)-dione], the Ki [1] was 7.3 nM.

`COc1cc(Oc2ncnn3cccc23)ccc1-c1cccnc1C` [Example 24, 4-[3-methoxy-4-(2-methylpyridin-3-yl)phenoxy]pyrrolo[2,1-f][1,2,4]triazine] showed a Ki [1] of 83.9 nM.

In the case of `Cc1cc(Oc2nccn3cccc23)ccc1-c1c(C)cnnc1C` (single isomer, unassigned) [Example 12, (−)-1-[4-(3,5-dimethylpyridazin-4-yl)-3-methylphenoxy]pyrrolo[1,2-a]pyrazine], the Ki [1] is reported as 96.3 nM.

Compound `Cc1cc(Oc2ncnn3cccc23)ccc1-c1c(C)ncnc1C` [Example 5, 4-[4-(4,6-dimethylpyrimidin-5-yl)-3-methylphenoxy]pyrrolo[2,1-f][1,2,4]triazine] has a Ki [1] of 56.4 nM.

Compound `COc1cc(Oc2nccn3cccc23)ccc1-c1c(C)ncnc1C` [Example 41, 1-[4-(4,6-dimethylpyrimidin-5-yl)-3-methoxyphenoxy]pyrrolo[1,2-a]pyrazine] has a Ki [1] of 34.7 nM.

Work on `Cc1ncnc(C)c1-c1ccc(Oc2ncnn3cccc23)cc1C#N` [Example 38, 2-(4,6-dimethylpyrimidin-5-yl)-5-(pyrrolo[2,1-f][1,2,4]triazin-4-yloxy)benzonitrile] yielded a Ki [1] of 141 nM.

`Cc1ncnc(C)c1-c1ccc(Oc2nccn3nccc23)cc1F` [Example 17, 4-[4-(4,6-dimethylpyrimidin-5-yl)-3-fluorophenoxy]pyrazolo[1,5-a]pyrazine] gave a Ki [1] of 183 nM.

Work on `Cc1cc(Oc2nccn3cccc23)ccc1-c1c(C)cnnc1C` (single isomer, unassigned) [Example 13, (+)-1-[4-(3,5-dimethylpyridazin-4-yl)-3-methylphenoxy]pyrrolo[1,2-a]pyrazine] yielded a Ki [1] of 13.1 nM.

In the case of `Cc1ncnc(C)c1-c1ccc(Oc2nccn3nccc23)cc1C#N` [Example 11, 2-(4,6-dimethylpyrimidin-5-yl)-5-(pyrazolo[1,5-a]pyrazin-4-yloxy)benzonitrile], the Ki [1] is reported as 1820 nM.

`Cc1ncnc(C)c1-c1ccc(Oc2nccn3cccc23)cc1C#N` [Example 10, 2-(4,6-dimethylpyrimidin-5-yl)-5-(pyrrolo[1,2-a]pyrazin-1-yloxy)benzonitrile] was tested, and the Ki was 63.9 nM.

For `Cc1cc(Oc2nccn3cccc23)c(F)cc1-c1c(C)ncnc1C` [Example 35, 1-[4-(4,6-dimethylpyrimidin-5-yl)-2-fluoro-5-methylphenoxy]pyrrolo[1,2-a]pyrazine], the Ki [1] was 31.5 nM.

Compound `Cc1cc(Oc2ncnn3cccc23)ccc1-c1c(C)nc2ncccn12` [Example 18, 4-[3-methyl-4-(2-methylimidazo[1,2-a]pyrimidin-3-yl)phenoxy]pyrrolo[2,1-f][1,2,4]triazine] has a Ki [1] of 1150 nM.

For `Cc1ncnc(C)c1-c1ccc(Oc2ncnn3cccc23)c(F)c1` [Example 33, 4-[4-(4,6-dimethylpyrimidin-5-yl)-2-fluorophenoxy]pyrrolo[2,1-f][1,2,4]triazine], the Ki [1] was 252 nM.

Work on `Cc1ncnc(C)c1-c1ccc(Oc2ncnn3cccc23)cc1F` [Example 16, 4-[4-(4,6-dimethylpyrimidin-5-yl)-3-fluorophenoxy]pyrrolo[2,1-f][1,2,4]triazine] yielded a Ki [1] of 58.2 nM.

With `Cc1cc(Oc2nccn3cccc23)ccc1-c1c(C)nnc2nccn12` [Example 28, 3-methyl-4-[2-methyl-4-(pyrrolo[1,2-a]pyrazin-1-yloxy)phenyl]imidazo[2,1-c][1,2,4]triazine] the Ki [1] was 198 nM.

`Cc1cc(Oc2ncnn3cccc23)ccc1-c1c(C)cnnc1C` [Example 9, 4-[4-(3,5-dimethylpyridazin-4-yl)-3-methylphenoxy]pyrrolo[2,1-f][1,2,4]triazine] gave a Ki [1] of 35.8 nM.

In the case of `Cc1cc(Oc2nccn3nccc23)ccc1-c1c(C)ncc2nccn12` [Example 8, 6-methyl-5-[2-methyl-4-(pyrazolo[1,5-a]pyrazin-4-yloxy)phenyl](8-^2H)imidazo[1,2-a]pyrazine], the Ki [1] is reported as 107 nM.

For `Cc1cc(Oc2ncnn3cccc23)ccc1-c1c(C)ncc(=O)n1C` [Example 39, 1,5-dimethyl-6-[2-methyl-4-(pyrrolo[2,1-f][1,2,4]triazin-4-yloxy)phenyl]pyrazin-2(1H)-one], the Ki [1] was 31.2 nM.

`Cc1cc(Oc2nccn3cccc23)ccc1-c1c(C)ncnc1C` [Example 4, 1-[4-(4,6-dimethylpyrimidin-5-yl)-3-methylphenoxy]pyrrolo[1,2-a]pyrazine] gave a Ki [1] of 22.1 nM.

Work on `Cc1ncnc(C)c1-c1cc(F)c(Oc2nccn3cccc23)cc1F` [Example 26, 1-[4-(4,6-dimethyipyrimidin-5-yl)-2,5-difluorophenoxy]pyrrolo[1,2-a]pyrazine] yielded a Ki [1] of 86.1 nM.

Work on `Cc1n[nH]c(=O)c(C)c1-c1ccc(Oc2nccn3cccc23)cc1` [Example 14, 4,6-dimethyl-5-[4-(pyrrolo[1,2-a]pyrazin-1-yloxy)phenyl]pyridazin-3(2H)-one] yielded a Ki [1] of 18.8 nM.

In the case of `Cc1ncnc(C)c1-c1ccc(Oc2nccn3nccc23)cc1` [Example 7, 4-[4-(4,6-dimethylpyrimidin-5-yl)phenoxy]pyrazolo[1,5-a]pyrazine], the Ki [1] is reported as 514 nM.

`Cc1ncnc(C)c1-c1ccc(Oc2ncnn3cccc23)c(F)c1C` [Example 32, 4-[4-(4,6-dimethylpyrimidin-5-yl)-2-fluoro-3-methylphenoxy]pyrrolo[2,1-f][1,2,4]triazine] gave a Ki [1] of 116 nM.

`Cc1ncnc(C)c1-c1ccc(Oc2nccn3cccc23)cc1Cl` [Example 37, 1-[3-chloro-4-(4,6-dimethylpyrimidin-5-yl)phenoxy]pyrrolo[1,2-a]pyrazine] gave a Ki [1] of 12.7 nM.

With `COc1cc(Oc2nccn3nccc23)ccc1-c1c(C)ncnc1C` [Example 23, 4-[4-(4,6-dimethylpyrimidin-5-yl)-3-methoxyphenoxy]pyrazolo[1,5-a]pyrazine] the Ki [1] was 894 nM.

Work on `Cc1ncnc(C)c1-c1ccc(Oc2ncnn3cccc23)cc1Cl` [Example 36, 4-[3-chloro-4-(4,6-dimethylpyrimidin-5-yl)phenoxy]pyrrolo[2,1-f][1,2,4]triazine] yielded a Ki [1] of 48.7 nM.

For `COc1cc(Oc2nccn3cccc23)ccc1-c1cccnc1C` [Example 25, 1-[3-methoxy-4-(2-methylpyridin-3-yl)phenoxy]pyrrolo[1,2-a]pyrazine], the Ki [1] was 56.4 nM.

In the case of `Cc1ncnc(C)c1-c1ccc(Oc2nccn3cccc23)cc1F` [Example 20, 1-[4-(4,6-dimethylpyrimidin-5-yl)-3-fluorophenoxy]pyrrolo[1,2-a]pyrazine], the Ki [1] is reported as 59.3 nM.

Compound `Cc1ncnc(C)c1-c1cc(F)c(Oc2ncnn3cccc23)cc1F` [Example 29, 4-[4-(4,6-dimethylpyrimidin-5-yl)-2,5-difluorophenoxy]pyrrolo[2,1-f][1,2,4]triazine] has a Ki [1] of 85.7 nM.

`COc1cc(Oc2nccn3cccc23)ccc1-c1c(C)cnnc1C` [Example 27, 1-[4-(3,5-dimethylpyridazin-4-yl)-3-methoxyphenoxy]pyrrolo[1,2-a]pyrazine] was tested, and the Ki [1] was 28.1 nM.

In the case of `Cc1ncnc(C#N)c1-c1ccc(Oc2nccn3cccc23)cc1F` [Example 30, 5-[2-fluoro-4-(pyrrolo[1,2-a]pyrazin-1-yloxy)phenyl]-6-methylpyrimidine-4-carbonitrile], the Ki [1] is reported as 59 nM.

`Cc1cnnc(C)c1-c1ccc(Oc2ncnn3cccc23)cc1F` [Example 22, 4-[4-(3,5-dimethylpyridazin-4-yl)-3-fluorophenoxy]pyrrolo[2,1-f][1,2,4]triazine] showed a Ki [1] of 105 nM.

`COc1cc(Oc2ncnn3cccc23)ccc1-c1c(C)ncnc1C` [Example 19, 4-[4-(4,6-dimethylpyrimidin-5-yl)-3-methoxyphenoxy]pyrrolo[2,1-f][1,2,4]triazine] showed a Ki [1] of 672 nM.

`Cc1cc(Oc2ccnc3ccnn23)ccc1-c1c(C)ncnc1C` [Example 40, 7-[4-(4,6-dimethylpyrimidin-5-yl)-3-methylphenoxy]pyrazolo[1,5-a]pyrimidine] was tested, and the Ki [1] was over 6400 nM.

`Cc1ncnc(C)c1-c1ccc(Oc2nccn3cccc23)cc1` [Example 21, 1-[4-(4,6-dimethylpyrimidin-5-yl)phenoxy]pyrrolo[1,2-a]pyrazine] gave a Ki [1] of 102 nM.

Work on `Cc1ncnc(C)c1-c1ccc(Oc2nccn3cccc23)c(F)c1` [Example 34, 1-[4-(4,6-dimethylpryimidin-5-yl)-2-fluorophenoxy]pyrrolo[1,2-a]pyrazine] yielded a Ki [1] of 49.4 nM.

`Cc1cc(Oc2nccn3nccc23)ccc1-c1c(C)ncnc1C` [Example 6, 4-[4-(4,6-dimethylpyrimidin-5-yl)-3-methylphenoxy]pyrazolo[1,5-a]pyrazine] showed a Ki [1] of 61.3 nM.

With `Cc1ncnc(C)c1-c1ccc(Oc2nccn3cccc23)c(F)c1C` [Example 31, 1-[4-(4,6-dimethylpyrimidin-5-yl)-2-fluoro-3-methylphenoxy]pyrrolo[1,2-a]pyrazine] the Ki [1] was 179 nM.
